Laboratory results as given in patent US4761398A, “Method of inducing birds to molt” (Embrex, Inc., priority 1986, dated 1988).

How the values were obtained:
[1] = tested on: single combed White Leghorn hens; assay: Hen-day egg production; type: in vivo
Description: (§1) During the experiment, two birds were assigned to each cage (12"×18"). The hens were maintained in their cages for two weeks prior to the molt. They received a 17 hour light: 7 hour dark photoperiod throughout this phase of the experiment. During this time, the following parameters were measured:(a) body weight (weekly); (b) feed consumption (all hens received a common layer ration, and the feed consumed during this two week period was measured); (C) production records (daily); and (d), total egg weight, egg shell weight, and egg specific gravity (measured on three consecutive days each week). Serum samples were taken once, from 10 randomly selected hens from each treatment group, and saved for future study.
(§2) After the two week pre-molt adjustment period, the hens were randomly assigned to each of eight different groups. These treatment groups were as follows: (1) control, (2) forced molt, (3) chemical molt-injected, (4) vehicle control-injected, (5) chemical molt-microcapsules A, (6) vehicle control-microcapsules A, (7) chemical molt-microcapsules B, and (8) vehicle control-microcapsules B.
The hens then received a seven day pre-molt treatment of a 24 hour light, zero hour dark photoperiod. On day 14 of the experiment the photoperiod was then reduced to natural day length for all treatments. Feed was made available ad libitum for all groups except the forced molt group. The forced molt group was deprived of food, but not of water, until a 30% body weight loss occurred (10 days of fasting).
(§3) [D-Trp^6 ]LHRH was used as the LHRH receptor ligand for the chemical molt groups. The "chemical molt-injected" group received intramuscular (breast) injections of 25 micrograms/day of [D-Trp^6 ]LHRH for 10 consecutive days beginning on day 14. Alternate pectoral (breast) areas were injected each day. The "chemical molt-microcapsule" groups received a single intramuscular (breast) injection of microencapsulated [D-Trp^6 ]LHRH on day zero. This preparation of microcapsules provided a controlled release of 25 micrograms [D-Trp^6 ]LHRH per day for 15 consecutive days.
(§4) On day 14, the microcapsule injected groups received intramuscular injections of lactide/glycolide copolymer microcapsules which had [D-Trp^6 ]LHRH incorporated therein. The ligand-containing microcapsules administered the "Microcapsules A" group were prepared and supplied by Debiopharm (Lausanne, Switzerland). These microcapsules were prepared by a phase-separation process to produce a free-flowing powder of spherical particles consisting of [D-Trp^6 ]LHRH (2% wt/wt) distributed within a polymeric matrix of 53:47(mol %) poly(DL-lactide-co-glycolide) (98% wt/wt) with an inherent viscosity of 0.7 dl/g. The microcapsules were 50 micrometers or less in diameter. […] Photomicrographs of similar microcapsules are presented in T. W. Redding, et al., Proc. Natl. Acad. Sci. U.S.A., 81, 5845 (Sept. 1984).
Microcapsules were suspended in disposable syringes in vehicle containing 2% carboxymethyl cellulose and 1% "TWEEN 20" in water. After thoroughly mixing the suspension, aliquots calculated to have released a dose of 25 micrograms/day for 15 consecutive days were injected into the breast muscle of the hens. We weighed the microcapsules directly into disposable 3 ml syringes. The plunger of a plugged syringe containing microcapsules (without vehicle) was pulled back to the 1.5-2 cc mark. The hub of the syringe was then placed against a vortex mixer and the syringe vortexed rapidly for about 20 seconds, or until most of the clumps of microbeads were broken and distributed along the barrel of the syringe. An 18 gauge needle was then attached and 0.7 to 1.0 ml of […] injection vehicle was drawn into the syringe. With the needle in an upward position, the syringe was again placed against a vortex mixer and vortexed rapidly for 20 seconds, or until a suspension of microbeads was formed in the vehicle. […]

[2] = tested on: single combed White Leghorn hens; assay: Mortality; type: in vivo
Text: as §2, §3
On day 14, the microcapsule injected groups received intramuscular injections of lactide/glycolide copolymer microcapsules which had [D-Trp^6 ]LHRH incorporated therein. The ligand-containing microcapsules administered the "Microcapsules A" group were prepared and supplied by Debiopharm (Lausanne, Switzerland). […]

[3] = tested on: single combed White Leghorn hens; assay: Egg parameters (specific gravity, total egg weight, shell weight); type: in vivo
Description: as §1, §2, §3, §4
The remaining hens were maintained for a three month production period, during which the following parameters were measured: a. body weight (weekly for the first month and then twice a month); b. feed consumption (measured weekly); c. egg production (measured daily); and d. egg weight, shell weight and specific gravity (measured for three consecutive days each week for the first month, and then three consecutive days every two weeks).

[4] = tested on: single combed White Leghorn hens; type: in vivo
Text: as §2, §3, §4
After the forced molt group achieved a 30% body weight loss, i.e., after 10 days of fasting, six hens from each group were necropsied. The liver, abdominal adipose tissue (fat pad), ovary plus ova and oviduct weights were measured. The remaining forced molt hens received a limited quantity of feed for two days, and were then fed ad libitum. For all groups, body weight and feed consumption were measured weekly. The lighting regime was increased, at weekly intervals, from natural day length to 17 hour light: seven hour dark. For the forced molt and chemical molt groups, when the first egg was produced after the molt, body weights were measured and body weights taken for the 10 selected birds.

LHRH receptor = biological target: T1, LHRH receptor (Homo sapiens, UniProt P30968); details: described in U.S. Pat. No. 4,010,125; cited from earlier work
T1 sequence (P30968 1-328): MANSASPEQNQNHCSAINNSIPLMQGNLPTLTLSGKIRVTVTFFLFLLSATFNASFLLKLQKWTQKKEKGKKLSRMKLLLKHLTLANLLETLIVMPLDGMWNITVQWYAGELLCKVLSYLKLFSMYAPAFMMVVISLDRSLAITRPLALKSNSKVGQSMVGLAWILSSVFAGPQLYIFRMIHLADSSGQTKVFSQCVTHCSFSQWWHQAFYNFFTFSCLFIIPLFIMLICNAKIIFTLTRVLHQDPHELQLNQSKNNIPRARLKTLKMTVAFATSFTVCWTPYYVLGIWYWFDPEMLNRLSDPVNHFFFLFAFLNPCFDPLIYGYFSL

[5] = Week 1 = days zero-2, before treatment
[6] = Week 2 = days 6-8, before treatment
[7] = hens killed immediately after the molt, Day 23

[D-Trp^6 ]LHRH [D-Trp^6 --LHRH]
HEN-DAY EGG PRODUCTION Reported By Weeks ([1]; listed as Day 5): 61.508% | HEN-DAY EGG PRODUCTION Reported By Weeks ([1]; listed as Day 12): 26.984% | HEN-DAY EGG PRODUCTION Reported By Weeks ([1]; listed as Day 17): 4.683% | HEN-DAY EGG PRODUCTION Reported By Weeks ([1]; listed as Day 22): 7.619% | HEN-DAY EGG PRODUCTION Reported By Weeks ([1]; listed as Day 27): 30.000% | HEN-DAY EGG PRODUCTION Reported By Weeks ([1]; listed as Day 33): 58.095% | HEN-DAY EGG PRODUCTION Reported By Weeks ([1]; listed as Day 40): 63.333% | HEN-DAY EGG PRODUCTION Reported By Weeks ([1]; listed as Day 47): 67.143% | HEN-DAY EGG PRODUCTION Reported By Weeks ([1]; listed as Day 54): 76.667% | HEN-DAY EGG PRODUCTION Reported By Weeks ([1]; listed as Day 61): 80.000% | HEN-DAY EGG PRODUCTION Reported By Weeks ([1]; listed as Day 75): 76.667% | HEN-DAY EGG PRODUCTION Reported By Weeks ([1]; listed as Day 82): 73.889% | HEN-DAY EGG PRODUCTION Reported By Weeks ([1]; listed as Day Zero): 63.889% | MORTALITY: Number of Hens That Died ([2]; Evaluated from day 28 to day 94): 0 | mortality in words ([2]; groups that received the ligand): no mortality occurred | EGG SHELL WEIGHT [3, 5]: 5.46 g | EGG SPECIFIC GRAVITY [3, 5]: 1.079 (g/cm)^3 | TOTAL EGG WEIGHT [3, 5]: 66.04 g | EGG SHELL WEIGHT [3, 6]: 5.82 g | EGG SPECIFIC GRAVITY [3, 6]: 1.082 (g/cm)^3 | TOTAL EGG WEIGHT [3, 6]: 67.72 g | EGG SHELL WEIGHT ([3]; Week 3 = days 40-42): 5.15 g | EGG SPECIFIC GRAVITY ([3]; Week 3 = days 40-42): 1.075 (g/cm)^3 | TOTAL EGG WEIGHT ([3]; Week 3 = days 40-42): 64.38 g | EGG SHELL WEIGHT ([3]; Week 4 = days 47-49): 5.61 g | EGG SPECIFIC GRAVITY ([3]; Week 4 = days 47-49): 1.079 (g/cm)^3 | TOTAL EGG WEIGHT ([3]; Week 4 = days 47-49): 68.27 g | EGG SHELL WEIGHT ([3]; Week 5 = days 54-56): 5.79 g | EGG SPECIFIC GRAVITY ([3]; Week 5 = days 54-56): 1.079 (g/cm)^3 | TOTAL EGG WEIGHT ([3]; Week 5 = days 54-56): 68.81 g | EGG SHELL WEIGHT ([3]; Week 6 = days 61-63): 5.65 g | EGG SPECIFIC GRAVITY ([3]; Week 6 = days 61-63): 1.080 (g/cm)^3 | TOTAL EGG WEIGHT ([3]; Week 6 = days 61-63): 67.4 g | EGG SHELL WEIGHT ([3]; Week 7 = days 75-77): 5.59 g | EGG SPECIFIC GRAVITY ([3]; Week 7 = days 75-77): 1.079 (g/cm)^3 | TOTAL EGG WEIGHT ([3]; Week 7 = days 75-77): 67.19 g | quality of eggs produced after the molt ([3]; compared with conventional Forced Molted Group): as good in quality as the eggs produced by the conventional Forced Molted Group | involution of reproductive tract ([4]; both treated groups): exhibited involution of their reproductive tracts | Ovary Wt. [4, 7]: 10.38 g | Oviduct Wt. [4, 7]: 17.65 g | Abdominal Adipose Tissue Wt. ([4]; in vivo): 55.73 g | Body Wt. ([4]; in vivo): 1.784 kg | duration of activity (LHRH receptor): prolonged activity
